Compound: O=c1ncccn1[C@@H]1O[C@H](CO)[C@@H](O)[C@H]1O [Zebularine] + O=C(c1cc(Cc2n[nH]c(=O)c3ccccc23)ccc1F)N1CCN(C(=O)C2CC2)CC1 [Olaparib] (partner 8 µM)
Assay: relative viability (nuclei count vs DMSO), 5 days (fraction); higher = more cells survive
Conditions: first compound 1 µM
Procedure, shortened: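 Lung cancer cell lines were pin-tool dosed in 1536-well plates on the day after seeding, with either a lone drug or a fixed anchor-drug dose plus five library-drug doses (not always all listed) in √10 steps. Nuclei were counted on 4× images after 5 days. Relative viability is the ratio of treated-well to vehicle-well nuclei counts, with each value a median of duplicate plates.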

Cell Line | relative viability
NCI-H2342 | 0.462
NCI-H727 | 0.728
NCI-H1650 | 0.731
EBC-1 | 0.833
NCI-H1703 | 0.468
NCI-H1993 | 1.09
SW 1573 | 0.487
NCI-H838 | 0.856
LCLC-103H | 0.839
NCI-H520 | 0.337
NCI-H2126 | 1.08
EMC-BAC-2 | 0.559
NCI-H2085 | 0.782
Calu-6 | 0.739
HCC-366 | 0.411
NCI-H1666 | 0.812
NCI-H596 | 0.7
LK-2 | 0.884
NCI-H2087 | 0.607
NCI-H1648 | 0.588
SK-MES-1 | 0.947
H3255 | 0.624
COR-L23 | 0.336
COR-L 105 | 0.715

Cell Line | relative viability
IA-LM | 0.889
LOU-NH91 | 0.906
ChaGo-K-1 | 0.332
NCI-H2170 | 0.707
NCI-H2405 | 0.905
HOP-62 | 0.169
HCC-44 | 0.974
A549 | 0.475
NCI-H522 | 0.746
LU99A | 0.306
BEN | 0.819
HARA | 0.901
SW 900 | 1.04
HCC-78 | 0.76
NCI-H322M | 0.544
LCLC-97TM1 | 0.404
NCI-H2009 | 0.624
A-427 | 0.771
NCI-H441 | 0.568
NCI-H661 | 0.856
NCI-H1734 | 0.581
NCI-H460 | 0.433
NCI-H2347 | 0.565
SK-LU-1 | 0.434

Cell Line | relative viability
NCI-H1395 | 0.465
201T | 0.907
NCI-H1915 | 0.266
HCC-827 | 0.752
LXF-289 | 1.06
NCI-H23 | 0.318
NCI-H1299 | 1.06
NCI-H647 | 0.506
CAL-12T | 0.837
NCI-H1651 | 0.183
EPLC-272H | 0.955
NCI-H2228 | 0.737
NCI-H1792 | 0.228
NCI-H1355 | 0.625
NCI-H3122 | 0.727
NCI-H1437 | 0.661
NCI-H1755 | 0.911
NCI-H2023 | 0.512
HCC-15 | 0.864
NCI-H1793 | 1.02
PC-14 | 0.179
EKVX | 0.952
LC-2-ad | 0.729

Same assay, conditions: first compound 3.162 µM

Cell Line | relative viability
NCI-H2342 | 0.468
NCI-H727 | 0.886
NCI-H1650 | 0.642
EBC-1 | 0.731
NCI-H1703 | 0.552
NCI-H1993 | 0.885
SW 1573 | 0.442
NCI-H838 | 0.798
LCLC-103H | 0.829
NCI-H520 | 0.299
NCI-H2126 | 0.855
EMC-BAC-2 | 0.477
NCI-H2085 | 0.709
Calu-6 | 0.467
HCC-366 | 0.294
NCI-H1666 | 0.803
NCI-H596 | 0.746
LK-2 | 0.714
NCI-H2087 | 0.478
NCI-H1648 | 0.852
SK-MES-1 | 0.722
H3255 | 0.597
COR-L23 | 0.329
COR-L 105 | 0.671

Cell Line | relative viability
IA-LM | 0.828
LOU-NH91 | 0.891
ChaGo-K-1 | 0.32
NCI-H2170 | 0.561
NCI-H2405 | 0.782
HOP-62 | 0.35
HCC-44 | 0.971
A549 | 0.165
NCI-H522 | 0.647
LU99A | 0.243
BEN | 0.623
HARA | 0.491
SW 900 | 0.889
HCC-78 | 0.652
NCI-H322M | 0.673
LCLC-97TM1 | 0.289
NCI-H2009 | 0.648
A-427 | 0.668
NCI-H441 | 0.41
NCI-H661 | 0.708
NCI-H1734 | 0.523
NCI-H460 | 0.405
NCI-H2347 | 0.566
SK-LU-1 | 0.351

Cell Line | relative viability
NCI-H1395 | 0.47
201T | 0.798
NCI-H1915 | 0.262
HCC-827 | 0.607
LXF-289 | 0.995
NCI-H23 | 0.132
NCI-H1299 | 0.893
NCI-H647 | 0.291
CAL-12T | 0.721
NCI-H1651 | 0.188
EPLC-272H | 0.774
NCI-H2228 | 0.503
NCI-H1792 | 0.131
NCI-H1355 | 0.426
NCI-H3122 | 0.631
NCI-H1437 | 0.641
NCI-H1755 | 0.891
NCI-H2023 | 0.452
HCC-15 | 0.652
NCI-H1793 | 0.906
PC-14 | 0.121
EKVX | 0.813
LC-2-ad | 0.681

Same assay, conditions: first compound 10 µM

Cell Line | relative viability
NCI-H2342 | 0.388
NCI-H727 | 0.732
NCI-H1650 | 0.634
EBC-1 | 0.584
NCI-H1703 | 0.339
NCI-H1993 | 0.416
SW 1573 | 0.33
NCI-H838 | 0.546
LCLC-103H | 0.597
NCI-H520 | 0.319
NCI-H2126 | 0.778
EMC-BAC-2 | 0.364
NCI-H2085 | 0.568
Calu-6 | 0.409
HCC-366 | 0.186
NCI-H1666 | 0.65
NCI-H596 | 0.713
LK-2 | 0.335
NCI-H2087 | 0.323
NCI-H1648 | 0.643
SK-MES-1 | 0.479
H3255 | 0.502

Cell Line | relative viability
COR-L23 | 0.277
COR-L 105 | 0.766
LOU-NH91 | 0.704
ChaGo-K-1 | 0.289
NCI-H2170 | 0.414
NCI-H2405 | 0.533
HOP-62 | 0.257
HCC-44 | 0.762
A549 | 0.163
NCI-H522 | 0.577
LU99A | 0.245
BEN | 0.608
HARA | 0.926
NCI-H322M | 0.597
LCLC-97TM1 | 0.138
NCI-H2009 | 0.461
A-427 | 0.576
NCI-H441 | 0.32
NCI-H661 | 0.56
NCI-H1734 | 0.334
NCI-H460 | 0.22
NCI-H2347 | 0.531

Cell Line | relative viability
SK-LU-1 | 0.333
NCI-H1395 | 0.558
201T | 0.574
NCI-H1915 | 0.243
HCC-827 | 0.487
LXF-289 | 0.549
NCI-H1299 | 0.852
NCI-H647 | 0.171
CAL-12T | 0.548
NCI-H1651 | 0.187
NCI-H1792 | 0.204
NCI-H1355 | 0.375
NCI-H3122 | 0.358
NCI-H1437 | 0.511
NCI-H1755 | 0.729
NCI-H2023 | 0.392
HCC-15 | 0.465
NCI-H1793 | 0.37
PC-14 | 0.208
LC-2-ad | 0.434

Same assay, conditions: first compound 31.62 µM

Cell Line | relative viability
NCI-H2342 | 0.437
NCI-H727 | 0.68
NCI-H1650 | 0.912
EBC-1 | 0.547
NCI-H1703 | 0.395
NCI-H1993 | 0.982
SW 1573 | 0.46
NCI-H838 | 0.38
LCLC-103H | 0.632
NCI-H520 | 0.243
NCI-H2126 | 0.664
EMC-BAC-2 | 0.526
NCI-H2085 | 0.482
Calu-6 | 0.331
HCC-366 | 0.103
NCI-H1666 | 0.802
NCI-H596 | 0.591
LK-2 | 0.259
NCI-H2087 | 0.34
NCI-H1648 | 0.7
SK-MES-1 | 0.393
H3255 | 0.577
COR-L23 | 0.178
COR-L 105 | 1.02

Cell Line | relative viability
IA-LM | 1.04
LOU-NH91 | 0.775
ChaGo-K-1 | 0.202
NCI-H2170 | 0.364
NCI-H2405 | 0.564
HOP-62 | 0.163
HCC-44 | 0.825
A549 | 0.156
NCI-H522 | 0.546
LU99A | 0.182
BEN | 0.428
HARA | 0.647
SW 900 | 0.773
HCC-78 | 0.444
NCI-H322M | 0.581
LCLC-97TM1 | 0.104
NCI-H2009 | 0.438
A-427 | 0.446
NCI-H441 | 0.227
NCI-H661 | 0.943
NCI-H1734 | 0.303
NCI-H460 | 0.162
NCI-H2347 | 0.385
SK-LU-1 | 0.313

Cell Line | relative viability
NCI-H1395 | 0.438
201T | 0.544
NCI-H1915 | 0.253
HCC-827 | 0.415
LXF-289 | 0.31
NCI-H23 | 0.276
NCI-H1299 | 0.805
NCI-H647 | 0.15
CAL-12T | 0.444
NCI-H1651 | 0.165
EPLC-272H | 0.66
NCI-H2228 | 0.283
NCI-H1792 | 0.171
NCI-H1355 | 0.28
NCI-H3122 | 0.478
NCI-H1437 | 0.443
NCI-H1755 | 0.74
NCI-H2023 | 0.256
HCC-15 | 0.371
NCI-H1793 | 0.333
PC-14 | 0.136
EKVX | 0.757
LC-2-ad | 0.201

Same assay, conditions: first compound 100 µM

Cell Line | relative viability
NCI-H2342 | 0.365
NCI-H727 | 0.775
NCI-H1650 | 0.39
EBC-1 | 0.359
NCI-H1703 | 0.321
NCI-H1993 | 0.693
SW 1573 | 0.325
NCI-H838 | 0.266
LCLC-103H | 0.637
NCI-H520 | 0.192
NCI-H2126 | 0.43
EMC-BAC-2 | 0.488
NCI-H2085 | 0.399
Calu-6 | 0.253
HCC-366 | 0.108
NCI-H1666 | 0.75
NCI-H596 | 0.547
LK-2 | 0.221
NCI-H2087 | 0.239
NCI-H1648 | 0.471
SK-MES-1 | 0.268
H3255 | 0.513
COR-L23 | 0.138
COR-L 105 | 0.644
IA-LM | 0.401
LOU-NH91 | 0.469
ChaGo-K-1 | 0.187

Cell Line | relative viability
NCI-H2170 | 0.166
NCI-H2405 | 0.511
HOP-62 | 0.16
HCC-44 | 0.39
A549 | 0.0971
NCI-H522 | 0.573
LU99A | 0.135
BEN | 0.506
HARA | 0.437
SW 900 | 0.479
HCC-78 | 0.291
NCI-H322M | 0.555
LCLC-97TM1 | 0.119
NCI-H2009 | 0.263
A-427 | 0.244
NCI-H441 | 0.24
NCI-H661 | 0.688
NCI-H1734 | 0.239
NCI-H460 | 0.133
NCI-H2347 | 0.358
SK-LU-1 | 0.289
NCI-H1395 | 0.448
201T | 0.474
NCI-H1915 | 0.197
HCC-827 | 0.252
LXF-289 | 0.275

Source: the supplement of paper PMC10307832
